Data: patent US12005055B2, “Methods for shrinking pituitary tumors” (Corcept Therapeutics Incorporated, priority 2018, dated 2024)
Entries after “also recorded” stand apart in the source; their conditions may differ.

Legend:
[1] = Clinical studies of relacorilant in patients with endogenous hypercortisolism; format: in vivo, human
From the text: The following examples show the results of relacorilant administration to patients suffering from pituitary tumors.

progesterone receptor = progesterone receptor (Homo sapiens, UniProt P06401); conditions: cited from earlier work
progesterone receptor, sequence (P06401 whole entry, species assumed): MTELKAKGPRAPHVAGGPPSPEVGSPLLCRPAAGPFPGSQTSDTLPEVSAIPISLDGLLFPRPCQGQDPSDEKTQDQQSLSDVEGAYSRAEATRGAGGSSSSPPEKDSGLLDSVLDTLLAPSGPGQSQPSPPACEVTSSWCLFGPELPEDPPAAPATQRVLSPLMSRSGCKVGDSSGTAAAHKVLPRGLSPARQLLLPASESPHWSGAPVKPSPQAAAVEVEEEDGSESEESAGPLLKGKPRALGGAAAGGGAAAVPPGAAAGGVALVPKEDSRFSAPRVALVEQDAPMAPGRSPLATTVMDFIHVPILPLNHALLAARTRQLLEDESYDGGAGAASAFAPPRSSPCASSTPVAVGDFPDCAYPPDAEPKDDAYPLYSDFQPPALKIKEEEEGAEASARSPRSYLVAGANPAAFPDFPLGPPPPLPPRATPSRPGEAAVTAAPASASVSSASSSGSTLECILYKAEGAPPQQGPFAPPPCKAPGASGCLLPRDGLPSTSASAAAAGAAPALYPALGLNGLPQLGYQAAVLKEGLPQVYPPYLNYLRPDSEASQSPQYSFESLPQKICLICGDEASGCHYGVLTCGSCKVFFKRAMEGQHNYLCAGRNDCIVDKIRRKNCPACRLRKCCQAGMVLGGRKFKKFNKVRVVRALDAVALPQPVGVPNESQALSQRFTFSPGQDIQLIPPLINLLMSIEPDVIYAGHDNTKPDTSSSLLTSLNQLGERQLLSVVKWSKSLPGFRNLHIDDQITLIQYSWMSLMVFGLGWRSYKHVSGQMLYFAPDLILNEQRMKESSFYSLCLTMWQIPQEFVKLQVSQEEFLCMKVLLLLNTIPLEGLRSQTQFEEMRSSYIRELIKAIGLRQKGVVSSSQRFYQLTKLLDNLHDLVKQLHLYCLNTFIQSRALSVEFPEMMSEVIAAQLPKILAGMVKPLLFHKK

pituitary macroadenoma = assay: MRI measurement of pituitary tumor size in Cushing's Disease patients given relacorilant; format: in vivo, human
From the text: The relacorilant administration disclosed herein can reduce tumor size and confer beneficial clinical outcomes to patients having a pituitary tumor. Methods for measuring the size of a pituitary tumor are well-known to skilled artisans in the field. For example, magnetic resonance imaging (MRI) and other imaging methods may be used to detect tumor shrinkage. Other methods for determining the effect of cancer therapy on tumor size are also known in the art, e.g., as described in the Response Evaluation Criteria in Solid Tumors (“RECIST”) guidelines, discussed, for example, in Chalian et al., Radiographics 31(7):2093-2105 (2011), and available at “protocolDevelopment/docs/recist_guideline.pdf” of the website “ctep.cancer.gov”.
Measuring tumor size is typically achieved by imaging-based techniques, including magnetic resonance imaging (MRI), computed tomography (CT), positron-emission tomography (PET) and other techniques. For example, MRI, CT, and PET scans can provide accurate and reliable anatomic information not only about tumor shrinkage or growth but also progression of disease by identifying either growth in existing lesions or the development of new lesions or tumor metastasis. Tumor size, including a reduction in tumor size, may be determined by measuring a linear dimension of a tumor (measuring may be accomplished, for example, by counting pixels on a digital image, by measuring a distance on a printed image or from an image projected onto a screen); by measuring two different linear dimensions of a tumor; by measuring three, or more, different linear dimensions of a tumor; by calculating (or estimating, based on measurements) a cross-sectional area of a tumor; by calculating (or estimating, based on measurements) a volume of a tumor; or by other means known in the art. […]

[2] = biological target: T1, mineralocorticoid receptor (Homo sapiens, UniProt P08235); conditions: cited from earlier work
T1 sequence (P08235 1-984): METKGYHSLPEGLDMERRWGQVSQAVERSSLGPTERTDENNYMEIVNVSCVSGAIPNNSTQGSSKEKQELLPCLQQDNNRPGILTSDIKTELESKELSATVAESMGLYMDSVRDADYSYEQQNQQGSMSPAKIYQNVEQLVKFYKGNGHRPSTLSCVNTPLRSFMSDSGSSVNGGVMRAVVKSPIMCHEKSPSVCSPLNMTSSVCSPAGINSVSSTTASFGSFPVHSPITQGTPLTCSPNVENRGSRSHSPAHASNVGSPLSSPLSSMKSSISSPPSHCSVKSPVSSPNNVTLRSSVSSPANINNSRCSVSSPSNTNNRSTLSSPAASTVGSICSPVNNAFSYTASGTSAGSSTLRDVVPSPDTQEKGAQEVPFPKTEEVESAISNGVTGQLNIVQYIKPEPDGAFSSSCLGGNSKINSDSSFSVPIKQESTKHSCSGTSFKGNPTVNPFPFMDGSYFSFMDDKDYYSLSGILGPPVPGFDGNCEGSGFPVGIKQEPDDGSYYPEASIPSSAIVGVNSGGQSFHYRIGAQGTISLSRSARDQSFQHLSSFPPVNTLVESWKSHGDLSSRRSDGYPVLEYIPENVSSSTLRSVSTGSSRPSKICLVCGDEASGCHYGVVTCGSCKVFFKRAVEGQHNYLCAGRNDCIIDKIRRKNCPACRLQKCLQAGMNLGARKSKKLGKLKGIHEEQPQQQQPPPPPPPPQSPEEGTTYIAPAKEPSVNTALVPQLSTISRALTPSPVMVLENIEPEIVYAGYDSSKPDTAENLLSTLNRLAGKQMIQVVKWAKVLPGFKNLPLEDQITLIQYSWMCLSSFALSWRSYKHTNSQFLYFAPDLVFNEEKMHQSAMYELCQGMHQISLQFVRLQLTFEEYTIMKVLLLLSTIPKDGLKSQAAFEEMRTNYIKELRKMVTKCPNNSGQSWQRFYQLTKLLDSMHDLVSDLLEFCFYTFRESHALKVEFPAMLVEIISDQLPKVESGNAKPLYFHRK

androgen receptor = androgen receptor (Homo sapiens, UniProt P10275); conditions: cited from earlier work
androgen receptor, sequence (P10275 whole entry, species assumed): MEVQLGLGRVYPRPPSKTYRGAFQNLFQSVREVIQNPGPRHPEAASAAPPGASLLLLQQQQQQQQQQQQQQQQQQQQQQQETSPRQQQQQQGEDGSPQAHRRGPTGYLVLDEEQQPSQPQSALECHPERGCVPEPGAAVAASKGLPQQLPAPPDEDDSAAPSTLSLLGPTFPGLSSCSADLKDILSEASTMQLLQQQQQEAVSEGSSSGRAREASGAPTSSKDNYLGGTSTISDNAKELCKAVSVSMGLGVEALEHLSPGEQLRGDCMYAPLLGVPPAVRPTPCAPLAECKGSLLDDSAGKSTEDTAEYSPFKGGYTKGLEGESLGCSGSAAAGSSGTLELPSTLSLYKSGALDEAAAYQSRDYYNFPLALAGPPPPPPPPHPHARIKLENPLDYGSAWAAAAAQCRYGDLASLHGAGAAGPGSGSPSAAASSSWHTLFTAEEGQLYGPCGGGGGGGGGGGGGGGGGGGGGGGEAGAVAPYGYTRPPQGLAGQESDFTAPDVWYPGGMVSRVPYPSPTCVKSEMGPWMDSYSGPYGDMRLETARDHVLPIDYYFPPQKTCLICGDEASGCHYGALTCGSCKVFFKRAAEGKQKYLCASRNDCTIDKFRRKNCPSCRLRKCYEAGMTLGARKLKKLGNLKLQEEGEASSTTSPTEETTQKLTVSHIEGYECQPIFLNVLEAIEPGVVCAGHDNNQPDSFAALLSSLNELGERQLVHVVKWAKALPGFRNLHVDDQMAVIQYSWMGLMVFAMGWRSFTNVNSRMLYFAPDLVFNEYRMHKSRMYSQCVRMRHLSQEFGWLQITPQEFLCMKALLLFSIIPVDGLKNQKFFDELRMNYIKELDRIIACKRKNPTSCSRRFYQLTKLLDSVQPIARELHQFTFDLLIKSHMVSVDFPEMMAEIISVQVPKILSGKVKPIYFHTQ

estrogen receptor = conditions: cited from earlier work
pituitary tumors = conditions: cited from earlier work
glucocorticoid receptor = glucocorticoid receptor (Homo sapiens, UniProt P04150); conditions: HepG2 cells; cited from earlier work
glucocorticoid receptor, sequence (P04150 whole entry): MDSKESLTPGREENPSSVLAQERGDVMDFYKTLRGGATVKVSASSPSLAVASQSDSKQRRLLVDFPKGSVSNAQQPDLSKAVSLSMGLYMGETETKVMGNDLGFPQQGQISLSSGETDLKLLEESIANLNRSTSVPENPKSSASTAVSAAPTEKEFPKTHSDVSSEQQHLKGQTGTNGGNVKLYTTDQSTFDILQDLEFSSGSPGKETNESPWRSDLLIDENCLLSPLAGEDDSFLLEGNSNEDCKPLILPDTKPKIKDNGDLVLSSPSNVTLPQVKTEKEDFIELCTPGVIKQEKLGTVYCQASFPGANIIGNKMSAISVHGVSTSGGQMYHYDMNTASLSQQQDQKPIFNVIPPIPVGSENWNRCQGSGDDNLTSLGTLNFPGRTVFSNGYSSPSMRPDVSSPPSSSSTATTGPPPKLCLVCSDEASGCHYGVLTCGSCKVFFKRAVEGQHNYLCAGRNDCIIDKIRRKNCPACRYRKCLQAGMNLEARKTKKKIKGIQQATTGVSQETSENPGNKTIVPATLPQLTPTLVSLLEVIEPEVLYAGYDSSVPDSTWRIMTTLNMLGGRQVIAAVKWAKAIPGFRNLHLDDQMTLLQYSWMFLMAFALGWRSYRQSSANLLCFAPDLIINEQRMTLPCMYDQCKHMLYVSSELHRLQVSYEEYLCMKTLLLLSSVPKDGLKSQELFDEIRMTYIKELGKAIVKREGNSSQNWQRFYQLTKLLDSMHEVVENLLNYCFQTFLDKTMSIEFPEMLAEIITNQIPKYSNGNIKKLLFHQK

For `Cn1cc(S(=O)(=O)N2CCC3=Cc4c(cnn4-c4ccc(F)cc4)C[C@]3(C(=O)c3cc(C(F)(F)F)ccn3)C2)cn1` [relacorilant, (R)-(1-(4-fluorophenyl)-6-((1-methyl-1H-pyrazol-4-yl)sulfonyl)-4,4a,5,6,7,8-hexahydro-1H-pyrazolo[3,4-g]isoquinolin-4a-yl)(4-(trifluoromethyl)pyridin-2-yl)methanone], the tolerability ([1]; clinical studies) is listed as “well tolerated”, the “glycemic and hypertension control and other manifestations of cortisol excess” value ([1]; patients with endogenous hypercortisolism) is listed as “significantly improved” and the “effect on progesterone receptor” value (progesterone receptor) is listed as “does not significantly affect”. The tumor volume shrinkage (pituitary macroadenoma; Example 2 patient, following three months of relacorilant administration) was roughly 40%, the “multiplication of the three post-treatment measurements (indication of tumor volume)” value (pituitary macroadenoma; Example 2 patient, pre-treatment measure 14,300 mm^3) was 8,778 mm^3 and the “effect on pituitary tumor size” value (pituitary macroadenoma; two Cushing's Disease patients (both macroadenomas), three months of daily relacorilant) was “significant pituitary tumor shrinkage; also recorded: shrunk; also recorded: effective to reduce the size of pituitary tumors”. For the same molecule, the “effect on mineralocorticoid receptor” value [2] was “does not significantly affect”, the “effect on androgen receptor” value (androgen receptor) was “does not significantly affect” and the “effect on estrogen receptor” value (estrogen receptor) was “does not significantly affect”.

For `CC#C[C@]1(O)CC[C@H]2[C@@H]3CCC4=CC(=O)CCC4=C3[C@@H](c3ccc(N(C)C)cc3)C[C@@]21C` [mifepristone], the “tumor regression (MRI)” value (pituitary tumors; 17 Cushing's Disease patients with visible tumors (10 macroadenomas), mifepristone for 24 weeks) is listed as “no regression”, the “MRI images of tumor over treatment” value (pituitary tumors; 17 patients, in one patient the tumor increased in size with 10 weeks of mifepristone) is listed as “stable in all but one patient” and the “effect on tyrosine aminotransferase (TAT) activity” value (glucocorticoid receptor) is listed as “decreases”.
